Results as given in ChEMBL document CHEMBL1201862, “PubChem BioAssay data set” (2004).
One block for each compound: values may come before it. Active and inactive are the calls of the source.

Tests used:
[1] = target: T1, Carboxy-terminal domain RNA polymerase II polypeptide A small phosphatase 1 (Homo sapiens, UniProt Q9GZU7); assay: inhibitors of CTDSP1, concentration-response testing, biochemical assay, absorbance-based, actives from ultra-high-throughput screening (AID 540297); format: functional
T1 sequence (Q9GZU7 whole entry): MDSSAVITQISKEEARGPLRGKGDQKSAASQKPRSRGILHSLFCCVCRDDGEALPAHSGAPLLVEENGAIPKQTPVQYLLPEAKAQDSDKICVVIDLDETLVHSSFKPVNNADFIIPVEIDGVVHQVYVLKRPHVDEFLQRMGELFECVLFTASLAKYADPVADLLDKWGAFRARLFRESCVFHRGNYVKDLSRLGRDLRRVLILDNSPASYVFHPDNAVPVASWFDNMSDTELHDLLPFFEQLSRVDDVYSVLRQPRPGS

[2] = target: T2, Mannose-6-phosphate isomerase (Homo sapiens, UniProt P34949); assay: human PMI inhibitors, high substrate, primary screen, biochemical, fluorescence intensity, high mannose 6-phosphate (AID 1220)
T2 sequence (P34949 whole entry): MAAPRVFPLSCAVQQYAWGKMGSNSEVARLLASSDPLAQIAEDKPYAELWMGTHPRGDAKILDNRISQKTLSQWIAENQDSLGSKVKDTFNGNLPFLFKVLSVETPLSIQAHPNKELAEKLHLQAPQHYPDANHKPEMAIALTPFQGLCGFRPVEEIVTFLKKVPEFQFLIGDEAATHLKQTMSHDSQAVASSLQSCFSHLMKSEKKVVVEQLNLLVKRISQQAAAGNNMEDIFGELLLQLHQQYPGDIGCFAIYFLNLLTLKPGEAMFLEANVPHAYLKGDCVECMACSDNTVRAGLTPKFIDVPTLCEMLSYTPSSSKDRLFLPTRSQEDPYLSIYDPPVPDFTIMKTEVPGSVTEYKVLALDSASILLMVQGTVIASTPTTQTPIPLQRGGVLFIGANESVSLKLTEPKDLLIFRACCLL

[3] = target: T3, High affinity choline transporter 1 (Homo sapiens, UniProt Q9GZV3); assay: CHT inhibitors, dose response, cell-based, 5-point CRC, membrane potential dye (AID 504840); format: functional
T3 sequence (Q9GZV3 whole entry): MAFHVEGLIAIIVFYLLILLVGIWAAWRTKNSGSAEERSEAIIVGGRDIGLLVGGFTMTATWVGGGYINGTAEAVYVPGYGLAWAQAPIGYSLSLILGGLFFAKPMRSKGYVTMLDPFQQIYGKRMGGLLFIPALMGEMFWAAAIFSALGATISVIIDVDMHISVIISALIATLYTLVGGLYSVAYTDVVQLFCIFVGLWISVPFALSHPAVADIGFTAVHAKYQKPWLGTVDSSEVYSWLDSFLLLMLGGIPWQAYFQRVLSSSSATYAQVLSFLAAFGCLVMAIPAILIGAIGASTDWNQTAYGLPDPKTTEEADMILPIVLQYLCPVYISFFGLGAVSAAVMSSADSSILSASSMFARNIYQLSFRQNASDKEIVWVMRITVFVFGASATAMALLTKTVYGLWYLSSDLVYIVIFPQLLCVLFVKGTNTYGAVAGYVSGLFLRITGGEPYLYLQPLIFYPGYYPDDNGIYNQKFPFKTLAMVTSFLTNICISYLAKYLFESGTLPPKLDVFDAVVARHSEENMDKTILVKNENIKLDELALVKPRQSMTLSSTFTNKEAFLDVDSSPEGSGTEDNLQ

[4] = HepG2 cell cytotoxicity, dose response, cytotoxicity control for Shn3 inhibitor project, CellTiter-Glo, cherry-picked (AID 624134); format: functional, cell-based
[5] = Shn3 3'UTR reporter inhibitors, dose response, cell-based, Clone20 osteoblasts, firefly luciferase, cherry-picked (AID 624132); format: functional;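 note: firefly luciferase luminescence from reporter carrying the Shn3 3'UTR in osteoblasts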
BJ [6] = assay: cytotoxicity toward Ras-transformed BJeLR fibroblasts, dose response, cell-based, alamar blue fluorescence, cherrypicked samples (AID 2631); format: functional; conditions: Homo sapiens;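 note: confirmatory dose-response assay in RAS-dependent BJ fibroblasts engineered with TERT, LT and ST, with cytotoxicity read by fluorescence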
BJ [7] = assay: cytotoxicity toward BJ-TERT fibroblasts, dose response, cell-based, RAS-independent, luminescence (AID 1933); format: functional; conditions: Homo sapiens
[8] = cytotoxicity toward DRD oncogenic fibroblasts, dose response, cell-based, non-viral oncogenic, luminescence (AID 1934); format: functional; conditions: Homo sapiens
BJ [9] = assay: cytotoxicity toward BJ-TERT-LT-ST fibroblasts, dose response, cell-based, RAS-independent, luminescence (AID 1935); format: functional; conditions: Homo sapiens;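 note: BJ fibroblasts immortalized with TERT plus LT and ST oncogenes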
BJ [10] = assay: cells; format: functional, cell-based; conditions: Homo sapiens
[11] = target: T4, DNA repair and recombination protein RAD54-like (Homo sapiens, UniProt Q92698); assay: inhibitors of human RAD54 branch migration, confirmation, biochemical, fluorescence, cherry-picked samples, dose series (AID 651657); format: functional
T4 sequence (Q92698 whole entry): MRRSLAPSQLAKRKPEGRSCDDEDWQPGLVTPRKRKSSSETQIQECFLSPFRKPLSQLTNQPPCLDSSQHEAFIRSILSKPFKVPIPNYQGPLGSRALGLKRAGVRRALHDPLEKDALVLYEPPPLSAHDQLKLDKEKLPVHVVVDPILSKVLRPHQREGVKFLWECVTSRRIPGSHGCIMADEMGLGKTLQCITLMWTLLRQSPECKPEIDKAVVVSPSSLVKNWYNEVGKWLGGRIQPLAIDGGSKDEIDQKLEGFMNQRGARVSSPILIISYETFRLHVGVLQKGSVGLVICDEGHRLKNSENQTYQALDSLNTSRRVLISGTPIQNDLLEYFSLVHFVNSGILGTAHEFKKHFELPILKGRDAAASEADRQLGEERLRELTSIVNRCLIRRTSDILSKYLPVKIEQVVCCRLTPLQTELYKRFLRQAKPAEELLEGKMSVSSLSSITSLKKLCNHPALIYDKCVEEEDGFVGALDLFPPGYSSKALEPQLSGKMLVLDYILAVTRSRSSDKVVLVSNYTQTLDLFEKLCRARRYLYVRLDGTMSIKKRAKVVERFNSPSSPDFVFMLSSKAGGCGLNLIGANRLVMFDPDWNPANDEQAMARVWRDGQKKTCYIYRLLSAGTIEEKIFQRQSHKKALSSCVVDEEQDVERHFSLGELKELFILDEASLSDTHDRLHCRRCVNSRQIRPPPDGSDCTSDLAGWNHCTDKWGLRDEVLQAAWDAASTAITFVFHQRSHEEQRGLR

[12] = target: Heat shock protein HSP 90-alpha (Homo sapiens, UniProt P07900); format: functional, organism-based
[13] = target: T5, Short transient receptor potential channel 4 (Mus musculus, UniProt Q9QUQ5); assay: mouse TRPC4 channel inhibitors, dose response, cell-based, HEK293 TRPC4/mu-opioid, Fluo-4 calcium (AID 434942); format: functional;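 note: potency of inhibitors blocking the TRPC4 calcium response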
T5 sequence (Q9QUQ5 whole entry): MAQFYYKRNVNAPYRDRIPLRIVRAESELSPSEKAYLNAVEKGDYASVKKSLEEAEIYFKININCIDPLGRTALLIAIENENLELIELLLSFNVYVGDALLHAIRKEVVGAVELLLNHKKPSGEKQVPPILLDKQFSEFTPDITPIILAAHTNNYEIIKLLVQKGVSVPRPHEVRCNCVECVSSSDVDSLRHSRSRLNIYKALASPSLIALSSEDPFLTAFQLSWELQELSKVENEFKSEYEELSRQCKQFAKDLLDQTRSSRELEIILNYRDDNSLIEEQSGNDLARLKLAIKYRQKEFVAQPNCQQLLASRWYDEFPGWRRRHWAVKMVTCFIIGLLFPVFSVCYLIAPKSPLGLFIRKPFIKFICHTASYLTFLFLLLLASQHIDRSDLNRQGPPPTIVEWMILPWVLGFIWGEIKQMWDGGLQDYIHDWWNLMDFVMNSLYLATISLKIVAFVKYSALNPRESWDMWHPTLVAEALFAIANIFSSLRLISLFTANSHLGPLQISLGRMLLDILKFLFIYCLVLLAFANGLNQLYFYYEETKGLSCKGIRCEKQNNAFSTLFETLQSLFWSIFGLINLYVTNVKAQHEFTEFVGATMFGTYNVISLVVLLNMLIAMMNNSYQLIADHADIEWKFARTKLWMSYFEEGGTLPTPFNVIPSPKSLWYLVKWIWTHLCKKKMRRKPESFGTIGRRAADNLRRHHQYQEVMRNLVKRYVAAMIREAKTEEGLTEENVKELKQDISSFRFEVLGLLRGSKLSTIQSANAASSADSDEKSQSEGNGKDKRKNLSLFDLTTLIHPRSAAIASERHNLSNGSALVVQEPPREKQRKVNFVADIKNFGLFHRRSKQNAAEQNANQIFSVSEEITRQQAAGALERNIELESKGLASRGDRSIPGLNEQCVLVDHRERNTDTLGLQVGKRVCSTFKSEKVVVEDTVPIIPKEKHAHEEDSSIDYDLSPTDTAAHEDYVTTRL

[14] = target: T6, Rac GTPase-activating protein 1 (Homo sapiens, UniProt Q9H0H5); assay: MgcRacGAP GTPase-activating activity inhibitors, confirmation, biochemical, ADP Hunter fluorescence, primary and confirmatory (AID 624330); format: functional
T6 sequence (Q9H0H5 whole entry): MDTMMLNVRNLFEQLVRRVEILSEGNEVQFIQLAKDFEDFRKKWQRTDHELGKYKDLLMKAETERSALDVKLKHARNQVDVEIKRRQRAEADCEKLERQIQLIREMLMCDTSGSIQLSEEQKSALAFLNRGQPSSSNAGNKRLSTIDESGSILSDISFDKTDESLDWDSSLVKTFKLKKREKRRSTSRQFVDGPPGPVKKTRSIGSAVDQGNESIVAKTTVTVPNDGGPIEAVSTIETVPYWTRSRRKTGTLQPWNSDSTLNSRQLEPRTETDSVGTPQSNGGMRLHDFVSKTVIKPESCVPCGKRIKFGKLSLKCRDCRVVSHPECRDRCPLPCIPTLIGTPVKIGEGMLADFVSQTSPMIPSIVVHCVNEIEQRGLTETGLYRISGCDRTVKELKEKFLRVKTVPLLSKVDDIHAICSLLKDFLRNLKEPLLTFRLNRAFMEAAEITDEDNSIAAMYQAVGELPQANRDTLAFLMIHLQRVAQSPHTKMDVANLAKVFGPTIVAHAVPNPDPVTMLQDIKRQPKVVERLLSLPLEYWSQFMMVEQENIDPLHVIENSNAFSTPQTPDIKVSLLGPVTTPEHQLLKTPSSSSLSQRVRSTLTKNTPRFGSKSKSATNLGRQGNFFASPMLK

[15] = target: Induced myeloid leukemia cell differentiation protein Mcl-1 (Homo sapiens, UniProt Q07820); format: functional
Chain of Induced myeloid leukemia cell differentiation protein Mcl-1 (Q07820 whole entry): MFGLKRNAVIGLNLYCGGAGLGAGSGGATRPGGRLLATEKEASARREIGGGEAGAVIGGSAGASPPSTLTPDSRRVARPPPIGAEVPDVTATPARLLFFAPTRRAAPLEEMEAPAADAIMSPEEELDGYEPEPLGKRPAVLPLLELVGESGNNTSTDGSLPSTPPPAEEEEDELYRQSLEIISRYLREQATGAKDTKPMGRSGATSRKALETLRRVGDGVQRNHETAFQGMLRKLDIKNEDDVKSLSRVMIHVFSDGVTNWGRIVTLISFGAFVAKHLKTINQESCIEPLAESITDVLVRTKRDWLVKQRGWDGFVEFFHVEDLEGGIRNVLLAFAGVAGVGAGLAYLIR

Structure (SMILES): O=C(c1ccc(COc2ccccc2[N+](=O)[O-])o1)N1CCCCCC1
- IC50 [3]: 12.6 µM (active)

Structure (SMILES): Cc1cccc(N2CCN(C(=S)Nc3ccc4nc(N5CCN(C)CC5)cc(C)c4c3)CC2)c1C
- AC50 [4]: 6.83 µM (active)
- AC50 [5]: 5.45 µM (active)
- EC50 (BJ [6]): 0.585 µM (active)
- EC50 (BJ [7]): 1.22 µM (inconclusive)
- EC50 [8]: 2.46 µM (active)
- EC50 (BJ [9]): 1.33 µM (inconclusive)
- EC50 (BJ [10]): 5.6 µM (inconclusive)

Structure (SMILES): CC(=O)OC1C(=O)OCC23CCC4(C)OC4C2OC2CC(OC(=O)C=CC=CC(=O)OCCC1C)C3(C)C21CO1 (stereo not given)
- AC50 [12]: 2.3 µM (active)

Structure (SMILES): CCOC(=O)C1=C(C)NC(=O)CC1c1cc2c(cc1[N+](=O)[O-])OCO2 (stereo not given)
- IC50 [2]: > 50 µM (not active)
- EC50 [13]: 1.68 µM (active)
- IC50 [14]: 100 µM (active)

Structure (SMILES): CN1CCN(CCCNC(=O)c2cc3c(=O)oc4ccccc4c3s2)CC1
- AC50 [11]: 38.1 µM (active)

The remaining lines, values ahead:

- IC50 [1]: 6.08 µM (active)
Structure (SMILES): COc1ccc(N2CCN(C(=O)Cc3ccc(S(=O)(=O)N4CCOCC4)s3)CC2)cc1

- IC50 [2]: > 50 µM (not active)
Structure (SMILES): COc1ccc(N2C(=O)CC(Sc3nc[nH]n3)C2=O)c(OC)c1 (stereo not given)

- IC50 [1]: 8.74 µM (active)
Structure (SMILES): COc1ccc(NC(=O)CN(C)C(=O)/C=C/c2cn(Cc3ccccc3)nc2-c2cccnc2)cc1

- AC50 [11]: 40.7 µM (active)
Structure (SMILES): CCN(CC)CCNC(=O)c1cc2cc3ccc(OC)cc3nc2o1

- AC50 [11]: 23.3 µM (active)
Structure (SMILES): O=c1c2ccccc2oc2cc(NCCCN3CCOCC3)ccc12

- IC50 [15]: 3.44 µM (active)
Structure (SMILES): CC(=O)Nc1ccc(-c2csc(NC(=O)C3CC(=O)N(c4ccc5c(c4)OCCO5)C3)n2)cc1 (stereo not given)

- IC50 [1]: 7.72 µM (active)
Structure (SMILES): CCOC(=O)C1=C(C)N=c2s/c(=C\c3ccc(C(=O)O)cc3)c(=O)n2C1c1ccc(OC)cc1OC (stereo not given)
